Test results: patent publication US10793588B2, “Crystal form of sodium-glucose cotransporter 2 inhibitor” (HAINAN XUANZHU PHARMA CO., LTD., priority 2016, dated 2020)

Test: Stability test of crystalline Form I and free compound (properties, relevant substances by HPLC, XRD)
Assay type: physicochemical
Experimental: The crystalline Form I of the co-crystal of the compound of Formula (1) with L-proline, which was prepared according to the methods in the examples; free compound of Formula (1).
The test samples were placed under conditions of 60° C., 40° C., RH 90%±5%, RH 75%±5%, 4500lx±500lx or UV-Vis for 10 days, […], and the samples were tested for relevant substances and XRD pattern; and the results were compared with those of a sample on the 0th day.
Determination of the relevant substances: the determination was carried out in accordance with High Performance Liquid Chromatography in Appendix V D in Pharmacopoeia of the People's Republic of China (2010) (Volume II).
XRD measurement: the measurement was carried out in accordance with X-Ray Powder Diffraction in Appendix IX F in Pharmacopoeia of the People's Republic of China (2010) (Volume II).

[1] = 0th day (baseline, listed under 60° C.)
[2] = UV-Vis, total illumination ≥1.2 × 10^6 Lux·h, near ultraviolet energy ≥200 w·h/m^2
[3] = conditions that meet the illumination requirement (UV-Vis)

SMILES: O=C(O)[C@@H]1CCCN1.O=C(O)[C@@H]1CCCN1.OC[C@H]1O[C@@H](c2ccc(Cl)c(Cc3ccc(O[C@H]4C[C@@H]5C[C@@H]5C4)cc3)c2)[C@H](O)[C@@H](O)[C@@H]1O [crystalline Form I]
- Relevant substances (%) [1]: 0.60%
- Relevant substances (%) (40° C., 5th day): 0.67%
- Relevant substances (%) (40° C., 10th day): 0.65%
- Relevant substances (%) (60° C., 5th day): 0.68%
- Relevant substances (%) (60° C., 10th day): 0.62%
- Relevant substances (%) (4500 lx ± 500 lx, 5th day): 0.66%
- Relevant substances (%) (4500 lx ± 500 lx, 10th day): 0.71%
- Relevant substances (%) (RH75% ± 5%, 5th day): 0.66%
- Relevant substances (%) (RH75% ± 5%, 10th day): 0.64%
- Relevant substances (%) (RH90% ± 5%, 5th day): 0.65%
- Relevant substances (%) (RH90% ± 5%, 10th day): 0.63%
- Stability compared with the free base of the compound (overall conclusion of the stability test): better stability
- Change of property, relevant substances and XRD pattern (temperature, humidity or light conditions for 10 days): did not change significantly

SMILES: OC[C@H]1O[C@@H](c2ccc(Cl)c(Cc3ccc(O[C@H]4C[C@@H]5C[C@@H]5C4)cc3)c2)[C@H](O)[C@@H](O)[C@@H]1O [free compound of Formula (1), (2S,3R,4R,5S,6R)-2-(3-(4-(((1R,3s,5S)-bicyclo[3.1.0]hexan-3-yl)oxy)benzyl)-4-chlorophenyl)-6-(hydroxymethyl)tetrahydro-2H-pyran-3,4,5-triol]
- Relevant substances (%) [1]: 1.35%
- XRD [1]: Amorphism
- Relevant substances (%) (40° C., 10th day): 1.44%
- XRD (40° C., 10th day): Amorphism
- Relevant substances (%) (60° C., 10th day): 1.43%
- XRD (60° C., 10th day): Amorphism
- XRD (RH75% ± 5%, 6th day): Amorphism
- Hygroscopicity under humidity conditions (RH90% ± 5% / RH75% ± 5%, 6th day): significant hygroscopic deliquescence
- XRD (RH90% ± 5%, 6th day): Amorphism
- Properties [2]: Tawny powder
- Relevant substances (%) [2]: 9.91%
- XRD [2]: Amorphism
- Change of property of the sample [3]: changed from an almost white powder to a tawny powder
- Increase of relevant substances relative to 0th day [3]: 8.56%
- Change of amount of relevant substances (temperature conditions (60° C., 40° C.) for 10 days): increased
